PMC8219695 (Nature Communications, 2021)
“And” between values parts separate entries of the source, which are not always exact repeats. Equal values may be shown once.

Key:
Format in all cases: cell-based
mDOR = target: T1, mDOR (Mus musculus, UniProt P32300); assay: CAMYEL BRET cAMP agonist assay at mDOR; details: for Agonist activity of 7OH analogs at mDOR: single replicate values, Supplementary Figure 7B
T1 construct: expressed in transfected cells

hDOR = hDOR (Homo sapiens, UniProt P41143); assay: CAMYEL BRET cAMP agonist assay at hDOR; details: for Agonist activity of 7OH analogs at hDOR: single replicate values, Supplementary Figure 7A
Sequence of hDOR (P41143 whole entry): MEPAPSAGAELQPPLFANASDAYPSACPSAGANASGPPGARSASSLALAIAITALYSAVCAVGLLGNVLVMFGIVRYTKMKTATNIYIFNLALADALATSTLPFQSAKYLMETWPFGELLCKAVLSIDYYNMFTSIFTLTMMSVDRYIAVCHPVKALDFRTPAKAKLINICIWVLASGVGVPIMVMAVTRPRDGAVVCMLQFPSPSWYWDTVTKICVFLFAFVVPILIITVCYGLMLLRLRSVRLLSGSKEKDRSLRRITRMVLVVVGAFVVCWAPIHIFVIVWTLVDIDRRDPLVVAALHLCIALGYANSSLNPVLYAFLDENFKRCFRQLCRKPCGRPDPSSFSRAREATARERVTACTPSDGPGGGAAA

rKOR = target: T2, rKOR (Rattus norvegicus, UniProt P34975); assay: CAMYEL BRET cAMP agonist assay at rKOR; details: individual replicates, Supplementary Figure 8B source data
T2 construct: expressed in transfected cells
T2 sequence (P34975 whole entry): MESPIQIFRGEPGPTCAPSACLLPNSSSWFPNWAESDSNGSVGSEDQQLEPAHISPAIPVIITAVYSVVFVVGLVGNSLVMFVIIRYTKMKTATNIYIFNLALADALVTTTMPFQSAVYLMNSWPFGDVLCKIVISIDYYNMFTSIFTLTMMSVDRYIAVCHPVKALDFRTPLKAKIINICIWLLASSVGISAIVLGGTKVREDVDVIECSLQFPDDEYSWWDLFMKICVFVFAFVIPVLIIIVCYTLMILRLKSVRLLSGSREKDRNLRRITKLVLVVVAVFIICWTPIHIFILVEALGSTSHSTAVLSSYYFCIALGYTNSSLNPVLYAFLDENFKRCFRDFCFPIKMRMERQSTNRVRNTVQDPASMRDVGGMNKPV

hKOR = hKOR (Homo sapiens, UniProt P41145); assay: CAMYEL BRET cAMP agonist assay at hKOR; details: individual replicates, Supplementary Figure 8A source data
Sequence of hKOR (P41145 whole entry): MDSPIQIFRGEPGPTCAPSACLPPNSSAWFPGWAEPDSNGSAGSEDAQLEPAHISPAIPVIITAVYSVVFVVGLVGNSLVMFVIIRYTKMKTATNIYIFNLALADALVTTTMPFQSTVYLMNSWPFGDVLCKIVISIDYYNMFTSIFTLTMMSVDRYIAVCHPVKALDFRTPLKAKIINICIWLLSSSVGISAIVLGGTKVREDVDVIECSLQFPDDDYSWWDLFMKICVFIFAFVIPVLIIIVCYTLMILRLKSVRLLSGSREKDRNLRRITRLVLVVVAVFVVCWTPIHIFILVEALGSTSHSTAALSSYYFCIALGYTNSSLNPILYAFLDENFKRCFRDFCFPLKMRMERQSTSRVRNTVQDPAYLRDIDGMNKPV

T1 sequence (P32300 whole entry): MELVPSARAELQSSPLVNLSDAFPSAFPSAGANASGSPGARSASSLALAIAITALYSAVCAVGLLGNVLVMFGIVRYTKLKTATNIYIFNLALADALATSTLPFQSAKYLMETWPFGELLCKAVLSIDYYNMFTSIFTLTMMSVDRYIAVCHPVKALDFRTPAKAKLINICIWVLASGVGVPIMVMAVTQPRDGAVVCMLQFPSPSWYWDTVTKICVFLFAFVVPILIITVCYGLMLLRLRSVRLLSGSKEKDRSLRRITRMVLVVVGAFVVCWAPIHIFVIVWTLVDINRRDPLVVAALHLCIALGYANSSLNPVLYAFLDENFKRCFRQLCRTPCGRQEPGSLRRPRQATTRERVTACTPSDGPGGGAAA

Structure (SMILES): CC[C@@H]1CN2CC[C@@]3(O)C(=Nc4cc(Br)cc(OC)c43)[C@@H]2C[C@@H]1/C(=C\OC)C(=O)OC [11-Br-7OH (24), 11-Br-7OH]
- Agonist activity of 7OH analogs at mDOR (mDOR; Log[drug] (M) -6): 28.5316 and 7.81 and 20.2665 and 20.4093 and 17.1261 and 17.3487 and 14.4976 and 7.195 and 12.5927
- Agonist activity of 7OH analogs at mDOR (mDOR; Log[drug] (M) -7): 11.1893 and 13.4547 and 27.5656 and 14.54 and 12.7942 and 5.698 and 4.253 and 2.065 and 7.661
- Agonist activity of 7OH analogs at mDOR (mDOR; Log[drug] (M) -8): 10.5957 and 18.0747 and 9.651 and 4.935 and -3.078 and 4.75 and 6.109 and 1.285 and 9.808
- Agonist activity of 7OH analogs at mDOR (mDOR; Log[drug] (M) -9): 17.3278 and 15.5005 and 47.145 and -2.094 and 7.434 and -5.339 and 5.642 and -1.53 and 3.1
- Agonist activity of 7OH analogs at mDOR (mDOR; Log[drug] (M) -10): 8.93 and 5.939 and 6.52 and 4.461 and 5.129 and -1.733 and 2.478 and 3.975 and -1.971
- Agonist activity of 7OH analogs at mDOR (mDOR; Log[drug] (M) -11): 10.869 and 6.17 and -5.4274 and 13.8383 and 9.771 and 11.6667 and 2.792 and -1.117 and -1.6751
- Agonist activity of 7OH analogs at mDOR (mDOR; Log[drug] (M) -13): -4.49 and 2.526 and 1.964 and 13.4101 and 7.388 and 17.2326 and -5.081 and 4.508 and 13.385
- Emax (mDOR; mDOR cAMP BRET, positive control DPDPE): very low efficacy
- Agonist activity of 7OH analogs at hDOR (hDOR; Log[drug] (M) -5): 4.7 and 25.3039 and 6.573 and 24.0158 and 10.0458 and 10.1909 and 12.9945 and 10.3075
- Agonist activity of 7OH analogs at hDOR (hDOR; Log[drug] (M) -6): 13.1842 and 10.2252 and 8.595 and 5.73 and 12.7267 and 14.3479 and 6.336 and 13.8749
- Agonist activity of 7OH analogs at hDOR (hDOR; Log[drug] (M) -7): 14.5317 and -1.155 and 1.334 and 28.0039 and 13.2568 and 5.897 and 5.1203 and 15.4297
- Agonist activity of 7OH analogs at hDOR (hDOR; Log[drug] (M) -8): 10.6504 and 18.084 and 4.153 and 20.0173 and 1.0999 and 15.8027 and 12.7278 and 11.7823 and 20.1626
- Agonist activity of 7OH analogs at hDOR (hDOR; Log[drug] (M) -9): 19.553 and 11.3403 and 28.4089 and 9.179 and -1.427 and -6.158 and 5.452 and 0.7244 and 17.3106
- Agonist activity of 7OH analogs at hDOR (hDOR; Log[drug] (M) -10): 3.839 and 3.779 and 7.219 and -2.673 and 3.726 and -0.9121 and -0.9075 and -0.119 and 1.027
- Agonist activity of 7OH analogs at hDOR (hDOR; Log[drug] (M) -11): 6.722 and 21.7822 and 0.8452 and 0.831 and -3.07 and 2.24 and 15.2814 and 3.682 and 0.8607
- Agonist activity of 7OH analogs at hDOR (hDOR; Log[drug] (M) -13): -12.8405 and 3.455 and 9.386 and 2.252 and 8.162 and 14.0199 and 6.2368 and 9.608 and 10.0864
- Emax (hDOR; hDOR cAMP BRET, positive control DPDPE): very low efficacy
- Agonist activity of 7OH analogs at rKOR (rKOR; Log [drug](M) -5): 25.6296 and -9.743 and 0.6611 and 8.628 and -4.988 and 6.198 and 4.323 and 3.4884 and 6.258
- Agonist activity of 7OH analogs at rKOR (rKOR; Log [drug](M) -6): 5.472 and -3.314 and -2.157 and 12.7013 and 24.7501 and 18.1661 and 1.856 and -1.539 and -0.3161
- Agonist activity of 7OH analogs at rKOR (rKOR; Log [drug](M) -7): 4.7985 and -15.0915 and 10.4804 and 13.2829 and 19.8014 and 0.6752 and 3.169 and 0.0803 and -0.9699
- Agonist activity of 7OH analogs at rKOR (rKOR; Log [drug](M) -8): 15.8006 and 9.743 and 5.004 and 1.565 and 3.381 and -4.9468 and 4.551 and 0.2655 and 16.2208
- Agonist activity of 7OH analogs at rKOR (rKOR; Log [drug](M) -9): 2.391 and 0.4693 and -2.7298 and 8.844 and 10.6443 and -8.128 and 0.4192 and -1.635 and 9.514
- Agonist activity of 7OH analogs at rKOR (rKOR; Log [drug](M) -10): -3.09 and -6.057 and 13.4494 and 16.7517 and 7.424 and 2.462 and 3.397 and 1.924 and 5.164
- Agonist activity of 7OH analogs at rKOR (rKOR; Log [drug](M) -11): -9.158 and 9.8247 and 5.5119 and -1.702 and 25.9779 and 16.6823 and 6.047 and 6.143 and 5.108
- Agonist activity of 7OH analogs at rKOR (rKOR; Log [drug](M) -13): -5.115 and 8.484 and 8.583 and 29.3433 and 7.52 and 9.7517 and 3.9044 and 5.761 and 8.186
- Agonist activity of 7OH analogs at hKOR (hKOR; Log [drug](M) -5): 10.9149 and -7.215 and 4.286 and 11.8421 and 11.499 and 10.9733 and -4.579 and 2.634 and 3.416
- Agonist activity of 7OH analogs at hKOR (hKOR; Log [drug](M) -6): 3.035 and -0.7724 and -13.4731 and 3.219 and -0.695 and 8.186 and -5.571 and -3.171 and 0.4347
- Agonist activity of 7OH analogs at hKOR (hKOR; Log [drug](M) -7): -0.1722 and -16.4342 and -16.1746 and -2.26 and -3.79 and -3.25 and 0.1411 and 2.3 and 5.19
- Agonist activity of 7OH analogs at hKOR (hKOR; Log [drug](M) -8): 22.3379 and -4.57 and 1.209 and 8.576 and -8.308 and -4.317 and 11.4126 and 9.041 and 4.453
- Agonist activity of 7OH analogs at hKOR (hKOR; Log [drug](M) -9): 2.393 and 14.1276 and 3.431 and 19.0489 and 8.55 and -5.559 and -3.604 and -6.454 and -4.21
- Agonist activity of 7OH analogs at hKOR (hKOR; Log [drug](M) -10): -9.31 and -5.502 and 19.956 and 11.266 and -0.5812 and -7.816 and -4.981 and -0.9266 and -11.4459
- Agonist activity of 7OH analogs at hKOR (hKOR; Log [drug](M) -11): 21.966 and -9.511 and 21.9409 and -12.3295 and 2.605 and 7.521 and 2.85 and -2.233 and 3.089
- Agonist activity of 7OH analogs at hKOR (hKOR; Log [drug](M) -13): -3.621 and -4.92 and 8.541 and 7.349 and -4.448 and -2.901 and 2.036 and -3.052 and 1.015
